Test results from PubChem BioAssay AID1259407 (Chemical Carcinogenesis Research Information System (CCRIS), 2018).
Active and inactive are the calls of the source. The rule behind the calls is not given here.

Tested on: CCRIS mutagenicity, Ames/micronucleus/aberration tests
Experiment: CCRIS mutagenicity studies
[1] = Test System: AMES SALMONELLA TYPHIMURIUM, Strain/Indicator: TA1537, Metabolic Activation: NONE, Method: STANDARD PLATE
[2] = Test System: E. COLI, Strain/Indicator: WP2 UVRA, Metabolic Activation: NONE, Method: STANDARD PLATE
[3] = Test System: E. COLI, Strain/Indicator: WP2 UVRA, Metabolic Activation: RAT, LIVER, S-9, AROCLOR 1254, Method: STANDARD PLATE

CCNCC#CC(C)(C)OC(=O)C(O)(c1ccccc1)C1CCCCC1 (stereo unspecified)
mutagenic call (Test System: AMES SALMONELLA TYPHIMURIUM, Strain/Indicator: TA98, Metabolic Activation: NONE, Method: STANDARD PLATE): inactive; negative
mutagenic call (Test System: AMES SALMONELLA TYPHIMURIUM, Strain/Indicator: TA98, Metabolic Activation: RAT, LIVER, S-9, PHENOBARBITAL AND 5,6-BENZOFLAVONE, Method: STANDARD PLATE): inactive; negative
mutagenic call (Test System: AMES SALMONELLA TYPHIMURIUM, Strain/Indicator: TA100, Metabolic Activation: NONE, Method: STANDARD PLATE): inactive; negative
mutagenic call (Test System: AMES SALMONELLA TYPHIMURIUM, Strain/Indicator: TA100, Metabolic Activation: RAT, LIVER, S-9, PHENOBARBITAL AND 5,6-BENZOFLAVONE, Method: STANDARD PLATE): inactive; negative
mutagenic call (Test System: AMES SALMONELLA TYPHIMURIUM, Strain/Indicator: TA1535, Metabolic Activation: NONE, Method: STANDARD PLATE): inactive; negative
mutagenic call (Test System: AMES SALMONELLA TYPHIMURIUM, Strain/Indicator: TA1535, Metabolic Activation: RAT, LIVER, S-9, PHENOBARBITAL AND 5,6-BENZOFLAVONE, Method: STANDARD PLATE): inactive; negative
mutagenic call [1]: inactive; negative
mutagenic call (Test System: AMES SALMONELLA TYPHIMURIUM, Strain/Indicator: TA1537, Metabolic Activation: RAT, LIVER, S-9, PHENOBARBITAL AND 5,6-BENZOFLAVONE, Method: STANDARD PLATE): inactive; negative
mutagenic call [2]: inactive; negative
mutagenic call (Test System: E. COLI, Strain/Indicator: WP2 UVRA, Metabolic Activation: RAT, LIVER, S-9, PHENOBARBITAL AND 5,6-BENZOFLAVONE, Method: STANDARD PLATE): inactive; negative

Nc1ccc(Nc2c3ccccc3nc3ccccc23)cc1
mutagenic call [1]: active; positive

CCOP(=O)(OCC)SCCSCC (tested in a mixture with another compound)
mutagenic call [2]: active; positive
mutagenic call [3]: active; positive
mutagenic call (Test System: UDS HUMAN FIBROBLASTS, Strain/Indicator: THY INCORP (NON-S-PHASE), Metabolic Activation: NONE, Method: LIQUID SCINTILLATION COUNTING): active; positive

S=C(NC1CCCCC1)NC1CCCCC1
mutagenic call (Test System: AMES SALMONELLA TYPHIMURIUM, Strain/Indicator: TA97, Metabolic Activation: HAMSTER, LIVER, S-9, AROCLOR 1254 (10 OR 30%), Method: PREINCUBATION): inactive; negative
mutagenic call (Test System: AMES SALMONELLA TYPHIMURIUM, Strain/Indicator: TA97, Metabolic Activation: NONE, Method: PREINCUBATION): inactive; negative
mutagenic call (Test System: AMES SALMONELLA TYPHIMURIUM, Strain/Indicator: TA97, Metabolic Activation: RAT, LIVER, S-9, AROCLOR 1254 (10%), Method: PREINCUBATION): inactive; negative
mutagenic call (Test System: AMES SALMONELLA TYPHIMURIUM, Strain/Indicator: TA97, Metabolic Activation: RAT, LIVER, S-9, AROCLOR 1254 (30%), Method: PREINCUBATION): inactive; negative
mutagenic call (Test System: AMES SALMONELLA TYPHIMURIUM, Strain/Indicator: TA98, Metabolic Activation: HAMSTER, LIVER, S-9, AROCLOR 1254 (10 OR 30%), Method: PREINCUBATION): inactive; negative
mutagenic call (Test System: AMES SALMONELLA TYPHIMURIUM, Strain/Indicator: TA98, Metabolic Activation: NONE, Method: PREINCUBATION): inactive; negative
mutagenic call (Test System: AMES SALMONELLA TYPHIMURIUM, Strain/Indicator: TA98, Metabolic Activation: RAT, LIVER, S-9, AROCLOR 1254 (10 OR 30%), Method: PREINCUBATION): inactive; negative
mutagenic call (Test System: AMES SALMONELLA TYPHIMURIUM, Strain/Indicator: TA100, Metabolic Activation: HAMSTER, LIVER, S-9, AROCLOR 1254 (10 OR 30%), Method: PREINCUBATION): inactive; negative
mutagenic call (Test System: AMES SALMONELLA TYPHIMURIUM, Strain/Indicator: TA100, Metabolic Activation: NONE, Method: PREINCUBATION): inactive; negative
mutagenic call (Test System: AMES SALMONELLA TYPHIMURIUM, Strain/Indicator: TA100, Metabolic Activation: RAT, LIVER, S-9, AROCLOR 1254 (10 OR 30%), Method: PREINCUBATION): inactive; negative
mutagenic call (Test System: AMES SALMONELLA TYPHIMURIUM, Strain/Indicator: TA1535, Metabolic Activation: HAMSTER, LIVER, S-9, AROCLOR 1254 (10 OR 30%), Method: PREINCUBATION): inactive; negative
mutagenic call (Test System: AMES SALMONELLA TYPHIMURIUM, Strain/Indicator: TA1535, Metabolic Activation: NONE, Method: PREINCUBATION): inactive; negative
mutagenic call (Test System: AMES SALMONELLA TYPHIMURIUM, Strain/Indicator: TA1535, Metabolic Activation: RAT, LIVER, S-9, AROCLOR 1254 (10 OR 30%), Method: PREINCUBATION): inactive; negative
mutagenic call (Test System: AMES SALMONELLA TYPHIMURIUM, Strain/Indicator: TA1537, Metabolic Activation: HAMSTER, LIVER, S-9, AROCLOR 1254 (10%), Method: PREINCUBATION): inactive; negative
mutagenic call (Test System: E. COLI, Strain/Indicator: WP2 UVRA, Metabolic Activation: HAMSTER, LIVER, S-9, AROCLOR 1254, Method: STANDARD PLATE): inactive; negative
mutagenic call (Test System: E. COLI, Strain/Indicator: WP2 UVRA, Metabolic Activation: HAMSTER, LIVER, S-9, Method: STANDARD PLATE): inactive; negative
mutagenic call (Test System: E. COLI, Strain/Indicator: WP2 UVRA, Metabolic Activation: MOUSE, LIVER, S-9, AROCLOR 1254, Method: STANDARD PLATE): inactive; negative
mutagenic call (Test System: E. COLI, Strain/Indicator: WP2 UVRA, Metabolic Activation: MOUSE, LIVER, S-9, Method: STANDARD PLATE): inactive; negative
mutagenic call [2]: inactive; negative
mutagenic call [3]: inactive; negative
mutagenic call (Test System: E. COLI, Strain/Indicator: WP2 UVRA, Metabolic Activation: RAT, LIVER, S-9, Method: STANDARD PLATE): inactive; negative
mutagenic call (Test System: MOUSE LYMPHOMA, Strain/Indicator: L5178Y (TK+/TK-), Metabolic Activation: RAT, LIVER, S-9, AROCLOR 1254, Method: SUSPENSION/PLATE): inactive; negative
